# Assay results: patent US20250032651A1, “[177LU] LUTETIUM-PSMA I&T COMPOSITION AND DOSIMETRY, KIT, METHOD OF MAKING, AND METHOD OF USING THEREOF” (Curium US LLC, priority 2022, published 2025)
# Experiments:
# [1] = Radiochemical purity of ^177Lu-PSMA I&T by HPLC in different formulation compositions, hours post EOS (Example 3); type: physicochemical
# Experimental: Product formulation details are described in Table 6.
# Radiochemical purity of each solution was followed by HPLC up to 71-93 hours post-radiolabeling.
# [2] = Cycle 3 dosimetry (TACs of cycle 1 scaled to cycle 3 time points); type: in vivo, human; conditions: for Absorbed Dose in Cycle 3, Mean / Absorbed Dose in Cycle 3, max / Absorbed Dose in Cycle 3, min: N = 16
# Experimental: (§1) To evaluate potential changes in the tracer's kinetics and uptake after multiple treatment cycles, 16 of the 27 patients included in the dosimetry sub study, were imaged at both cycle 1 and cycle 3. Among these, at cycle 3, three patients were imaged at all 4 timepoints and the other 13 were imaged at one or two timepoints only (24 h, 48 h or both 24 h and 48 h) (Table 2). For these 13 patients, the TACs obtained at cycle 1 were used for each source organ and scaled to the normalized activity value(s) measured at Cycle 3. For patients imaged at two timepoints, the TACs were preferably scaled using the average scaling factor between the two timepoints.
# A subgroup of 16 out of the 27 patients underwent and additional dosimetry assessment at Cycle 3. Among these, three patients had dosimetry performed based on images taken at 4 timepoints, while the remaining patients had dosimetry performed at 1 or 2 imaging timepoints only.
# as §1, with “7 in Appendix 1).” for “2).”
# [3] = Lacrimal Glands (OLINDA sphere model)
# [4] = Lacrimal Glands, OLINDA sphere model
compound,measurement,setting,value
"O=C([O-])CC[C@H](NC(=O)N[C@@H](CCCCNC(=O)CCCCCCC(=O)NCCCC[C@@H](NC(=O)[C@@H](Cc1ccccc1)NC(=O)[C@@H](Cc1ccc(O)c(I)c1)NC(=O)CC[C@H](C(=O)[O-])N1CCN(CC(=O)[O-])CCN(CC(=O)[O-])CCN(CC(=O)[O-])CC1)C(=O)[O-])C(=O)[O-])C(=O)[O-].[177Lu+3].[H+].[H+].[H+].[H+].[H+] [^177Lu-PSMA I&T, (3S,7S,26R,29R,32R,37R)-29-benzyl-32-(4-hydroxy-3-iodobenzyl)-5,13,20,28,31,34-hexaoxo-37-(4,7,10-tris(carboxymethyl)-1,4,7,10-tetraazacyclododecan-1-yl)-4,6,12,21,27,30,33-heptaazaheptatriacontane-1,3,7,26,37-pentacarboxylic acid; lutetium-177 (III)]",radiochemical purity as measured by HPLC,"[1]; 10 ml high RAC formulation, 42.5 mg/ml ascorbic acid, 0 hours post EOS",at least 99%
same,radiochemical purity as measured by HPLC,"[1]; 10 ml high RAC formulation, 42.5 mg/ml ascorbic acid, 46 hours post EOS",at least 93.3%
same,radiochemical purity as measured by HPLC,"[1]; 20 ml low RAC formulation, 31 mg/ml ascorbic acid, 0 hours post EOS",at least 99.1%
same,adequate radiochemical stability (radiochemical purity at least 95%),"[1]; about 31 mg/ml ascorbic acid, pH about 4.5, radioactivity concentration about 640 MBq/ml or below",four
same,decrease in radiochemical purity over time at pH 4.5 compared with pH 7,[1]; high RAC solutions,two times slower
same,radiochemical purity,"[1]; high radioactivity concentration, pH 4.5, 42.5 mg/ml ascorbic acid, 24 hours post EOS",98.0%
same,radiochemical purity,"[1]; high radioactivity concentration, pH 4.5, 42.5 mg/ml ascorbic acid, 46 hours post EOS",96.7%
same,radiochemical purity,"[1]; high radioactivity concentration, pH 4.5, 42.5 mg/ml ascorbic acid, 67 hours post EOS",95.3%
same,radiochemical purity,"[1]; high radioactivity concentration, pH 4.5, 42.5 mg/ml ascorbic acid, 71 hours post EOS",95.2%
same,radiochemical stability (radiochemical purity),"[1]; low RAC solution, pH 4.5, ascorbic acid 31 mg/ml, for 72 hours or longer",above 95.0%
same,radiochemical purity,"[1]; low radioactivity concentration 579 MBq/ml, pH 4.5, 21 mg/ml ascorbic acid, 92 hours post EOS",96.0%
same,radiochemical purity,"[1]; low radioactivity concentration 588.5 MBq/ml, pH 4.5, 31 mg/ml ascorbic acid, 20 hours post EOS",98.7%
same,radiochemical purity,"[1]; low radioactivity concentration 588.5 MBq/ml, pH 4.5, 31 mg/ml ascorbic acid, 44 hours post EOS",98.0%
same,radiochemical purity,"[1]; low radioactivity concentration 588.5 MBq/ml, pH 4.5, 31 mg/ml ascorbic acid, 69 hours post EOS",97.4%
same,radiochemical purity,"[1]; low radioactivity concentration 588.5 MBq/ml, pH 4.5, 31 mg/ml ascorbic acid, 93 hours post EOS",97.0%
same,radiochemical purity,"[1]; low radioactivity concentration 626 MBq/ml, pH 5.0, 31 mg/ml ascorbic acid, 0 hours post EOS",99.2%
same,radiochemical purity,"[1]; low radioactivity concentration 626 MBq/ml, pH 5.0, 31 mg/ml ascorbic acid, 25 hours post EOS",98.4%
same,radiochemical purity,"[1]; low radioactivity concentration 626 MBq/ml, pH 5.0, 31 mg/ml ascorbic acid, 47 hours post EOS",97.3%
same,radiochemical stability (radiochemical purity),"[1]; lowered formulation radioactivity concentration, for 72 hours, experiments conducted previously",above 95.0%
same,"Absorbed Dose in Cycle 3, Mean",[2]; Adrenals,0.02 Gy/GBq
same,"Absorbed Dose in Cycle 3, max",[2]; Adrenals,0.03 Gy/GBq
same,"Absorbed Dose in Cycle 3, min",[2]; Adrenals,0.01 Gy/GBq
same,"Absorbed Dose in Cycle 3, Mean",[2]; Brain,0.01 Gy/GBq
same,"Absorbed Dose in Cycle 3, max",[2]; Brain,0.02 Gy/GBq
same,"Absorbed Dose in Cycle 3, min",[2]; Brain,0.00 Gy/GBq
same,"absorbed radiation dose, kidneys (mean ± SD)","[2]; Cycle 3, 16 patients imaged at cycle 1 and 3",0.49±0.19 Gy/GBq
same,"Absorbed Dose in Cycle 3, Mean",[2]; Esophagus,0.01 Gy/GBq
same,"Absorbed Dose in Cycle 3, max",[2]; Esophagus,0.02 Gy/GBq
same,"Absorbed Dose in Cycle 3, min",[2]; Esophagus,0.00 Gy/GBq
same,"Absorbed Dose in Cycle 3, Mean",[2]; Eyes,0.01 Gy/GBq
same,"Absorbed Dose in Cycle 3, max",[2]; Eyes,0.02 Gy/GBq
same,"Absorbed Dose in Cycle 3, min",[2]; Eyes,0.00 Gy/GBq
same,"Absorbed Dose in Cycle 3, Mean",[2]; Gallbladder wall,0.01 Gy/GBq
same,"Absorbed Dose in Cycle 3, max",[2]; Gallbladder wall,0.02 Gy/GBq
same,"Absorbed Dose in Cycle 3, min",[2]; Gallbladder wall,0.00 Gy/GBq
same,"Absorbed Dose in Cycle 3, Mean",[2]; Heart wall,0.01 Gy/GBq
same,"Absorbed Dose in Cycle 3, max",[2]; Heart wall,0.02 Gy/GBq
same,"Absorbed Dose in Cycle 3, min",[2]; Heart wall,0.00 Gy/GBq
same,"Absorbed Dose in Cycle 3, Mean",[2]; Kidneys,0.49 Gy/GBq
same,"Absorbed Dose in Cycle 3, max",[2]; Kidneys,0.85 Gy/GBq
same,"Absorbed Dose in Cycle 3, min",[2]; Kidneys,0.19 Gy/GBq
same,"Absorbed Dose in Cycle 3, Mean",[2]; [3],0.29 Gy/GBq
same,"Absorbed Dose in Cycle 3, max",[2]; [3],0.73 Gy/GBq
same,"Absorbed Dose in Cycle 3, min",[2]; [3],0.10 Gy/GBq
same,"Absorbed Dose in Cycle 3, Mean",[2]; [4],0.29 Gy/GBq
same,"Absorbed Dose in Cycle 3, max",[2]; [4],0.73 Gy/GBq
same,"Absorbed Dose in Cycle 3, min",[2]; [4],0.10 Gy/GBq
same,"Absorbed Dose in Cycle 3, Mean",[2]; Left colon,0.41 Gy/GBq
same,"Absorbed Dose in Cycle 3, max",[2]; Left colon,0.94 Gy/GBq
same,"Absorbed Dose in Cycle 3, min",[2]; Left colon,0.07 Gy/GBq
same,"Absorbed Dose in Cycle 3, Mean",[2]; Liver,0.06 Gy/GBq
same,"Absorbed Dose in Cycle 3, max",[2]; Liver,0.15 Gy/GBq
same,"Absorbed Dose in Cycle 3, min",[2]; Liver,0.00 Gy/GBq
same,"Absorbed Dose in Cycle 3, Mean",[2]; Lungs,0.01 Gy/GBq
same,"Absorbed Dose in Cycle 3, max",[2]; Lungs,0.02 Gy/GBq
same,"Absorbed Dose in Cycle 3, min",[2]; Lungs,0.00 Gy/GBq
same,"Absorbed Dose in Cycle 3, Mean",[2]; Osteogenic cells,0.02 Gy/GBq
same,"Absorbed Dose in Cycle 3, max",[2]; Osteogenic cells,0.09 Gy/GBq
same,"Absorbed Dose in Cycle 3, min",[2]; Osteogenic cells,0.00 Gy/GBq
same,"Absorbed Dose in Cycle 3, Mean",[2]; Pancreas,0.01 Gy/GBq
same,"Absorbed Dose in Cycle 3, max",[2]; Pancreas,0.02 Gy/GBq
same,"Absorbed Dose in Cycle 3, min",[2]; Pancreas,0.00 Gy/GBq
same,"Absorbed Dose in Cycle 3, Mean",[2]; Prostate,0.01 Gy/GBq
same,"Absorbed Dose in Cycle 3, max",[2]; Prostate,0.02 Gy/GBq
same,"Absorbed Dose in Cycle 3, min",[2]; Prostate,0.01 Gy/GBq
same,"Absorbed Dose in Cycle 3, Mean",[2]; Rectum,0.39 Gy/GBq
same,"Absorbed Dose in Cycle 3, max",[2]; Rectum,0.90 Gy/GBq
same,"Absorbed Dose in Cycle 3, min",[2]; Rectum,0.06 Gy/GBq
same,"Absorbed Dose in Cycle 3, Mean",[2]; Red Marrow,0.03 Gy/GBq
same,"Absorbed Dose in Cycle 3, max",[2]; Red Marrow,0.17 Gy/GBq
same,"Absorbed Dose in Cycle 3, min",[2]; Red Marrow,0.00 Gy/GBq
same,"Absorbed Dose in Cycle 3, Mean",[2]; Right Colon,0.22 Gy/GBq
same,"Absorbed Dose in Cycle 3, max",[2]; Right Colon,0.51 Gy/GBq
same,"Absorbed Dose in Cycle 3, min",[2]; Right Colon,0.04 Gy/GBq
same,"Absorbed Dose in Cycle 3, Mean",[2]; Salivary Glands,0.20 Gy/GBq
same,"Absorbed Dose in Cycle 3, max",[2]; Salivary Glands,0.69 Gy/GBq
same,"Absorbed Dose in Cycle 3, min",[2]; Salivary Glands,0.04 Gy/GBq
same,"Absorbed Dose in Cycle 3, Mean",[2]; Small intestine,0.04 Gy/GBq
same,"Absorbed Dose in Cycle 3, max",[2]; Small intestine,0.10 Gy/GBq
same,"Absorbed Dose in Cycle 3, min",[2]; Small intestine,0.01 Gy/GBq
same,"Absorbed Dose in Cycle 3, Mean",[2]; Spleen,0.03 Gy/GBq
same,"Absorbed Dose in Cycle 3, max",[2]; Spleen,0.12 Gy/GBq
same,"Absorbed Dose in Cycle 3, min",[2]; Spleen,0.01 Gy/GBq
same,"Absorbed Dose in Cycle 3, Mean",[2]; Stomach Wall,0.01 Gy/GBq
same,"Absorbed Dose in Cycle 3, max",[2]; Stomach Wall,0.02 Gy/GBq
same,"Absorbed Dose in Cycle 3, min",[2]; Stomach Wall,0.00 Gy/GBq
same,"Absorbed Dose in Cycle 3, Mean",[2]; Testes,0.01 Gy/GBq
same,"Absorbed Dose in Cycle 3, max",[2]; Testes,0.02 Gy/GBq
same,"Absorbed Dose in Cycle 3, min",[2]; Testes,0.00 Gy/GBq
same,"Absorbed Dose in Cycle 3, Mean",[2]; Thymus,0.01 Gy/GBq
same,"Absorbed Dose in Cycle 3, max",[2]; Thymus,0.02 Gy/GBq
same,"Absorbed Dose in Cycle 3, min",[2]; Thymus,0.00 Gy/GBq
same,"Absorbed Dose in Cycle 3, Mean",[2]; Thyroid,0.01 Gy/GBq
same,"Absorbed Dose in Cycle 3, max",[2]; Thyroid,0.02 Gy/GBq
same,"Absorbed Dose in Cycle 3, min",[2]; Thyroid,0.00 Gy/GBq
same,"Absorbed Dose in Cycle 3, Mean",[2]; Total Body,0.02 Gy/GBq
same,"Absorbed Dose in Cycle 3, max",[2]; Total Body,0.03 Gy/GBq
same,"Absorbed Dose in Cycle 3, min",[2]; Total Body,0.01 Gy/GBq
same,"Absorbed Dose in Cycle 3, Mean",[2]; Urinary Bladder wall,0.45 Gy/GBq
same,"Absorbed Dose in Cycle 3, max",[2]; Urinary Bladder wall,0.70 Gy/GBq
same,"Absorbed Dose in Cycle 3, min",[2]; Urinary Bladder wall,0.36 Gy/GBq
